Legend:
Format in all cases: physicochemical
[1] = Storage stability of the compositions for two months (viscosity, colour, odour, HPLC content, crystals); settings: two months at room temperature and at 45° C.
Procedure: After storage for two months at room temperature and at 45° C., no change in the viscosity or colour of the composition and no release of odour were observed.

[2] = Amount of aminophenol derivative dissolved in various solubilizing agents
Procedure: The amount of aminophenol derivative (N-ethyloxyearbonyl-4-para-aminophenol, or EPAP, and N-cholesteryloxyearbonyl-4-para-aminophenol, or CPAP) which can be dissolved in various solubilizing agents, at 60° C., was compared in Tables 1 and 2 below.

[3] = as above; settings: in caprylic/capric triglycerides, at room temperature
[4] = in composition of Example 2 (fluid emulsion)
[5] = in composition of Example 3 (bleaching fluid)
[6] = in apricot kernel oil, at 60° C.
[7] = in mixture of oxyethylenated (26 EO) oxypropylenated (26 PO) butyl alcohol and oxyethylenated (40 EO) hydrogenated castor oil
[8] = in oxyethylenated (7 EO) hydrogenated castor oil, at 60° C.
[9] = in oxyethylenated (20 EO) oxypropylenated (5 PO) cetyl alcohol, at 60° C.
[10] = in oxyethylenated (20 EO) sorbitan monostearate, at 60° C.
[11] = in oxyethylenated (40 EO) hydrogenated castor oil, at 60° C.
[12] = in oxyethylenated (60 EO) hydrogenated castor oil, at 60° C.
[13] = in composition of Example 1 (fluid emulsion)

Amount dissolved ([2]; in Laureth-4, at 60° C.) [%]	Amount dissolved [2, 6]	Amount dissolved ([2]; in hexyldecanol, at 60° C.)	Amount dissolved ([2]; in mineral oil, at 60° C.)	Amount dissolved [2, 7] [%]	Amount dissolved ([2]; in octyldodecanol, at 60° C.)	Amount dissolved [2, 8] [%]	Amount dissolved [2, 9] [%]	Amount dissolved [2, 10] [%]	Amount dissolved [2, 11] [%]	Amount dissolved [2, 12] [%]	Structure (SMILES)	also measured
4.8	insoluble	insoluble	insoluble	14.2	0.5%	12.5	14.2	14.2	16.5	16.5	CC(C)CCC[C@@H](C)[C@H]1CC[C@H]2[C@@H]3CC=C4C[C@@H](OC(=O)Nc5ccc(O)cc5)CC[C@]4(C)[C@H]3CC[C@]12C [CPAP, N-cholesteryloxycarbonyl-4-para-aminophenol]	Decrease in compound content, as determined by HPLC [1, 4]: no decrease; Formation of crystals of the compound [1, 4]: no formation of crystals; Decrease in compound content, as determined by HPLC [1, 5]: no decrease; Formation of crystals of the compound [1, 5]: no formation of crystals; Amount dissolved ([2]; in Laureth-23, at 60° C.): 4.8%; Amount dissolved ([2]; in caprylic/capric triglycerides, at 60° C.): 0.5%
25	insoluble	insoluble	insoluble	20	insoluble	16.6	16.5	50	16.5	16.5	CCOC(=O)Nc1ccc(O)cc1 [EPAP, N-ethyloxycarbonyl-4-para-aminophenol]	Decrease in compound content, as determined by HPLC [1, 13]: no decrease; Formation of crystals of the compound [1, 13]: no formation of crystals; Amount dissolved ([2]; in caprylic/capric triglycerides, 80° C.): 4.7% (80° C.);; Amount dissolved ([2]; in mixture of oxyethylenated (9 EO) tridecyl alcohol and oxyethylenated (40 EO) hydrogenated castor oil): 25%; Recrystallization after dissolution [3]: recrystallizes

Source: patent publication US7056498B2, “Composition containing aminophenol derivative, use thereof, and process for dissolving aminophenol derivative” (L'Oreal, priority 1999, dated 2006)
